# Earlier results in patent publication US20220000855A1, “AN AURORA A KINASE INHIBITOR FOR USE IN THE TREATMENT OF NEUROBLASTOMA” (Eli Lilly and Company, priority 2018, published 2022).
# Conditions: background statement
row,SMILES,neutropenia and other toxic effects associated with use
1,COc1cc(Nc2ncc3c(n2)-c2ccc(Cl)cc2C(c2c(F)cccc2OC)=NC3)ccc1C(=O)O [alisertib],unacceptably high levels of neutropenia and other toxic effects
2,Cc1cc(Nc2cc(N3CCN(C)CC3)nc(Sc3ccc(NC(=O)C4CC4)cc3)n2)[nH]n1 [tozasertib],unacceptably high levels of neutropenia and other toxic effects
